Like-named read-outs stand apart in the source and are kept apart here. Bounds are passed on as bounds.

For 23 molecules, IC50 results are on record in patent US10689378B2, “Triazolopyridine compounds and uses thereof” (Novartis AG, priority 2016, dated 2020).

One experiment addresses T1, EED (1-441)-His protein (Homo sapiens, UniProt O75530).
T1 construct: 30 nM EED (1-441)-His protein
Kind of experiment: EED-H3K27Me3 peptide competition binding assay by AlphaScreen. The essentials: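 Serially diluted compound (12 points, 3-fold) incubated 20 min with 30 nM EED(1-441)-His and 15 nM biotin-H3K27Me3(19-33) peptide in 25 mM HEPES pH 8, 0.02% Tween-20, 0.5% BSA. Ni-chelate acceptor/streptavidin donor beads (10 μg/mL each) added, 1 h rt dark; 615 nm emission normalized to controls, dose-response fit for IC50.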

Experiment [1] has as its system H3K27 methylation in G401 cell. The experiment in a line: ELISA (H3K27 methylation) assay in G401 cells. Type of experiment: cell-based, human. Conditions: Homo sapiens. The essentials:
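G401 cells treated 48 h with 3-fold dilutions (8 or 12 points, top 20 μM). Acid-extracted histones probed by ELISA for H3K27me3 or H3K27me2 with ECL readout, normalized to total H3. Percent inhibition versus DMSO fitted to dose-response curve for IC50.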

The mark [2] stands for this setting: read-out: (a) IC50, EED Alphascreen binding Qualified.
Setting [3] is: G-401, read-out: (c) IC50, ELISA Qualified.
Setting [4] is: EED-H3K27Me3 peptide competition, AlphaScreen, read-out: (a) IC50 EED Alphascreen binding Qualified.
The mark [5] stands for this setting: G-401, H3K27 methylation ELISA, read-out: (c) IC50 ELISA Qualified.

T1 sequence (O75530 whole entry): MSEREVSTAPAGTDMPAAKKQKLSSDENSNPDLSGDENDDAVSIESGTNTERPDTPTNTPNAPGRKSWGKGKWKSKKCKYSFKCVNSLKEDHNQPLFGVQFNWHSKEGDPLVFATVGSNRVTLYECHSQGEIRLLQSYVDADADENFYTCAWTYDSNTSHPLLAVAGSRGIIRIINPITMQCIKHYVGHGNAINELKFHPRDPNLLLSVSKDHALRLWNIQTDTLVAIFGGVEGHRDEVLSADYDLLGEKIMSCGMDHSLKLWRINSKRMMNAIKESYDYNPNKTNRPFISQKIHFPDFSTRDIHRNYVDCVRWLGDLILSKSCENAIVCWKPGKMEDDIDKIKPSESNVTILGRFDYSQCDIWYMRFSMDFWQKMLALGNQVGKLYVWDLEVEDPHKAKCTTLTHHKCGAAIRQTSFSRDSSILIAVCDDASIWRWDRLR

As for `COc1cc(CNc2ccc(-c3ccc(CN(C)C)cc3)c3nncn23)ccc1F` [Example 156, 8-(4-((dimethylamino)methyl)phenyl)-N-(4-fluoro-3-methoxybenzyl)-[1,2,4] triazolo[4,3-a]pyridin-5-amine], the figures for the half-maximal inhibitory concentration (IC50) (at EED (1-441)-His protein (setting [2]); in experiment [1] (setting [3])) were 1350 nM and 788 nM, respectively.
For the molecule `COc1cc(F)cc(CNc2ccc(-c3ccc(CN(C)C)cc3)c3nncn23)c1` [Example 171, 8-(4-((dimethylamino)methyl)phenyl)-N-(3-fluoro-5-methoxybenzyl)-[1,2,4]triazolo[4,3-a]pyridin-5-amine], the IC50 at EED (1-441)-His protein (setting [2]) amounted to 839 nM; in experiment [1] (setting [3]), 1100 nM.
`COc1ccccc1-c1ccc(NCc2c(F)cccc2OC)n2cnnc12` [Example 191, N-(2-fluoro-6-methoxybenzyl)-8-(2-methoxyphenyl)-[1,2,4]triazolo[4,3-a] pyridin-5-amine]: the IC50 on EED (1-441)-His protein (setting [4]) stood at 479 nM; in experiment [1] (setting [5]), 996 nM.
For `COc1cccc(F)c1CNc1ccc(-c2ccccc2C(F)(F)F)c2nncn12` [Example 193, N-(2-fluoro-6-methoxybenzyl)-8-(2-(trifluoromethyl)phenyl)-[1,2,4]triazolo[4,3-a]pyridin-5-amine], the values for the IC50 (on EED (1-441)-His protein (setting [4]); in experiment [1] (setting [5])) were 283 nM and 704 nM, respectively.
The matching figures for `COc1cccc(F)c1CNc1ccc(-c2cncc(C(C)O)c2)c2nncn12` (stereo not shown) [Example 197, 1-(5-(5-((2-fluoro-6-methoxybenzyl)amino)-[1,2,4]triazolo[4,3-a]pyridin-8-yl)pyridin-3-yl)ethanol]: 414 nM and 161 nM.
Consider `COc1cccc(F)c1CNc1ccc(-c2cnccc2C(F)(F)F)c2nncn12` [Example 202, N-(2-fluoro-6-methoxybenzyl)-8-(4-(trifluoromethyl)pyridin-3-yl)-[1,2,4]triazolo[4,3-a] pyridin-5-amine], for which the IC50 on EED (1-441)-His protein (setting [4]) stood at 270 nM; in experiment [1] (setting [5]), 318 nM.
The matching figures for `COc1cccc(F)c1CNc1ccc(-c2cncc(OCCS(C)(=O)=O)c2)c2nncn12` [Example 204, N-(2-fluoro-6-methoxybenzyl)-8-(5-(2-(methylsulfonyl)ethoxy)pyridin-3-yl)-[1,2,4]triazolo[4,3-a] pyridin-5-amine]: 143 nM and 95.8 nM.
For `COc1cccc(F)c1CNc1ccc(-c2cc(F)c(N)cc2F)c2nncn12` [Example 208, 8-(4-amino-2,5-difluorophenyl)-N-(2-fluoro-6-methoxybenzyl)-[1,2,4]triazolo[4,3-a]pyridin-5-amine] the same measures were 105 nM and 140 nM.
Consider `COc1cccc(F)c1CNc1ccc(-c2ccc(C#N)cc2C)c2nncn12` [Example 209, 4-(5-((2-fluoro-6-methoxybenzyl)amino)-[1,2,4]triazolo[4,3-a]pyridin-8-yl)-3-methylbenzonitrile], for which the IC50 stood at 119 nM on EED (1-441)-His protein (setting [4]) and 76.2 nM in experiment [1] (setting [5]).
For `COc1cccc(F)c1CNc1ccc(-c2ccccc2C)c2nncn12` [Example 211, N-(2-fluoro-6-methoxybenzyl)-8-(o-tolyl)-[1,2,4] triazolo[4,3-a]pyridin-5-amine] the same measures were 103 nM and 151 nM.
As to `COc1cccc(F)c1CNc1ccc(-c2ccc(Cl)cc2Cl)c2nncn12` [Example 224, 8-(2,4-dichlorophenyl)-N-(2-fluoro-6-methoxybenzyl)-[1,2,4]triazolo[4,3-a]pyridin-5-amine], the IC50 is 137 nM at EED (1-441)-His protein (setting [4]) and 220 nM in experiment [1] (setting [5]).
For the molecule `COc1ccc(F)c(F)c1CNc1ccc(-c2cccnc2)c2nncn12` [Example 242, N-(2,3-difluoro-6-methoxybenzyl)-8-(pyridin-3-yl)-[1,2,4]triazolo[4,3-a]pyridin-5-amine], the IC50 on EED (1-441)-His protein (setting [4]) came to 177 nM; in experiment [1] (setting [5]), 454 nM.
As to `COc1ccc(F)c(F)c1CNc1ccc(-c2ccncc2)c2nncn12` [Example 243, N-(2,3-difluoro-6-methoxybenzyl)-8-(pyridin-4-yl)-[1,2,4]triazolo[4,3-a]pyridin-5-amine], the IC50 was 329 nM at EED (1-441)-His protein (setting [4]) and 349 nM in experiment [1] (setting [5]).
For the molecule `COc1ccc(F)c(F)c1CNc1ccc(-c2ccc(S(C)(=O)=O)cc2)c2nncn12` [Example 244, N-(2,3-difluoro-6-methoxybenzyl)-8-(4-(methylsulfonyl)phenyl)-[1,2,4]triazolo[4,3-a]pyridin-5-amine], the IC50 on EED (1-441)-His protein (setting [4]) turned out to be 231 nM; in experiment [1] (setting [5]) it was 277 nM.
For the molecule `CCc1ccccc1-c1ccc(NCc2c(F)cccc2OC)n2cnnc12` [Example 254, 8-(2-ethylphenyl)-N-(2-fluoro-6-methoxybenzyl)-[1,2,4]triazolo[4,3-a]pyridin-5-amine], the 50% inhibitory concentration (IC50) at EED (1-441)-His protein (setting [4]) was found to be 263 nM; in experiment [1] (setting [5]) it was 761 nM.
In the case of `COc1cccc(F)c1CNc1ccc(-c2cn(C(C)C)nc2C(F)(F)F)c2nncn12` [Example 255, N-(2-fluoro-6-methoxybenzyl)-8-(1-isopropyl-3-(trifluoromethyl)-1H-pyrazol-4-yl)-[1,2,4]triazolo[4,3-a] pyridin-5-amine], the IC50 at EED (1-441)-His protein (setting [4]) was 189 nM; in experiment [1] (setting [5]), 76.8 nM.
With `COc1cccc(F)c1CNc1ccc(-c2ccccc2C(C)C)c2nncn12` [Example 257, N-(2-fluoro-6-methoxybenzyl)-8-(2-isopropylphenyl)-[1,2,4]triazolo[4,3-a] pyridin-5-amine], the IC50 on EED (1-441)-His protein (setting [4]) is 906 nM; in experiment [1] (setting [5]), no less than 62500 nM.
Regarding `COc1cccc(F)c1CNc1ccc(-c2cnc(N3CCOCC3)nc2C)c2nncn12` [Example 261, N-(2-fluoro-6-methoxybenzyl)-8-(4-methyl-2-morpholinopyrimidin-5-yl)-[1,2,4]triazolo[4,3-a]pyridin-5-amine], the IC50 on EED (1-441)-His protein (setting [4]) turned out to be 17.6 nM; in experiment [1] (setting [5]), 7.8 nM.
As for `COc1cccc(F)c1CNc1ccc(-c2cnc(N3CCOCC3)cc2C)c2nncn12` [Example 262, N-(2-fluoro-6-methoxybenzyl)-8-(4-methyl-6-morpholinopyridin-3-yl)-[1,2,4]triazolo[4,3-a]pyridin-5-amine], the IC50 at EED (1-441)-His protein (setting [4]) is 12.4 nM; in experiment [1] (setting [5]), 15.6 nM.
`COc1cccc(F)c1CNc1ccc(-c2ccc(Cl)nc2C)c2nncn12` [Example 263, 8-(6-chloro-2-methylpyridin-3-yl)-N-(2-fluoro-6-methoxybenzyl)-[1,2,4]triazolo[4,3-a] pyridin-5-amine]: the values for the IC50 (at EED (1-441)-His protein (setting [4]); in experiment [1] (setting [5])) were 16.9 nM and 15.4 nM, respectively.
For `COc1cccc(F)c1CNc1ccc(-c2ccnc(C(F)(F)F)c2)c2nncn12` [Example 264, N-(2-fluoro-6-methoxybenzyl)-8-(2-(trifluoromethyl)pyridin-4-yl)-[1,2,4]triazolo[4,3-a] pyridin-5-amine], the IC50 turned out to be 14.8 nM at EED (1-441)-His protein (setting [4]) and 14.7 nM in experiment [1] (setting [5]).
Turning to `COc1cc(CNc2ccc(-c3cccnc3C)c3nncn23)c(F)cc1F` [Example 285, N-(2,4-difluoro-5-methoxybenzyl)-8-(2-methylpyridin-3-yl)-[1,2,4]triazolo[4,3-a] pyridin-5-amine], the values for the IC50 (at EED (1-441)-His protein (setting [4]); in experiment [1] (setting [5])) were 176 nM and 112 nM, respectively.
Regarding `COc1ccc(F)c(F)c1CNc1ccc(-c2cccnc2C)c2nncn12` [Example 286, N-(2,3-difluoro-6-methoxybenzyl)-8-(2-methylpyridin-3-yl)-[1,2,4]triazolo[4,3-a] pyridin-5-amine], the values for the IC50 (on EED (1-441)-His protein (setting [4]); in experiment [1] (setting [5])) were 112 nM and 115 nM, respectively.
